In the supplement of paper PMC12317010:
Where a name gives a salt, the structure may show the parent alone.

Assay: collision cross section in nitrogen (drift tube, single-field); higher = larger gas-phase ion size
[1] = ion type: [M+H], ion source: ESI, ion mode: Positive
[2] = ion type: [M-H], ion source: ESI, ion mode: Negative
[3] = ion type: [M+H], ion source: APCI, ion mode: Positive
[4] = ion type: [M+], ion source: APCI, ion mode: Positive
[5] = ion type: [M+Na], ion source: ESI, ion mode: Positive
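Also: chemical standards at 10 µM analysed by drift tube IMS-QTOF MS in about 3.95 torr nitrogen, mean of duplicate injections differing ≤1%, mass error below 10 ppm.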

| SMILES | collision cross section in nitrogen [1] [Å²] | collision cross section in nitrogen [2] [Å²] | collision cross section in nitrogen [3] [Å²] | collision cross section in nitrogen [5] [Å²] | further results |
| --- | --- | --- | --- | --- | --- |
| CCCC[N+](C)(CCCC)CCCC [N,N-Dibutyl-N-methylbutan-1-aminium chloride] | – | – | – | – | collision cross section in nitrogen (ion source: APCI, ion mode: Positive, ion type: [M]+ (permanent cation)): 153.8 Å²; collision cross section in nitrogen (ion source: ESI, ion mode: Positive, ion type: [M]+ (permanent cation)): 154.5 Å² |
| CN(C)Cc1ccccc1O [2-((Dimethylamino)methyl)phenol] | 162.2 | – | – | – | – |
| O=C(Nc1ccccc1)c1cc([N+](=O)[O-])ccc1Cl [2-Chloro-5-nitro-N-phenylbenzamide] | – | 159.9 | – | – | – |
| CCCCCCCCc1ccc(Nc2ccc(CCCCCCCC)cc2)cc1 [4,4'-Dioctyldiphenylamine] | 219.9 | 221 | 218.8 | – | collision cross section in nitrogen [4]: 219.4 Å² |
| NNC(=O)c1cccc(C(=O)NN)c1 [Isophthalyl dihydrazide] | 149.1 | 145 | – | – | – |
| O=S1(=O)OC(c2cc(Br)c(O)c(Br)c2)(c2cc(Br)c(O)c(Br)c2)c2ccccc21 [Bromophenol blue] | – | 214.2 | – | – | – |
| COC(=O)N(C(=O)N1COC2(C(=O)OC)Cc3cc(Cl)ccc3C2=N1)c1ccc(OC(F)(F)F)cc1 (racemic) [(+/-)-Indoxacarb] | 205.6 | – | – | 220.6 | – |
| O=[N+]([O-])c1ccc2[nH]c(S)nc2c1 [5-Nitro-2-mercaptobenzimidazole] | – | 133.6 | – | – | – |
| CC1=NNC(=O)N(/N=C/c2cccnc2)C1 [Pymetrozine] | 154.2 | – | 154.8 | 155.8 | – |
| C#C[C@]1(O)CC[C@H]2[C@@H]3CCC4=CC(=O)CC[C@]4(C)[C@H]3CC[C@@]21C [Ethisterone] | – | – | 180.2 | 204.6 | – |
| CCNc1nc(NC(C)C)nc(SC)n1 [Ametryn] | 155.5 | – | 155.2 | – | – |
| CCCCCCCCCCO[C@@H]1O[C@H](CO)[C@@H](O)[C@H](O)[C@H]1O [Decyl beta-D-glucopyranoside] | – | 192.6 | – | 187.7 | – |
| CCCCCC(=O)O[C@]1(C(C)=O)CC[C@H]2[C@@H]3CCC4=CC(=O)CC[C@]4(C)[C@H]3CC[C@@]21C [17-((1-Oxohexyl)oxy)pregn-4-ene-3,20-dione] | – | 212.9 | – | 225.6 | – |
| CC1CN1P(=O)(N1CC1C)N1CC1C (centres undefined) [Metepa] | 143.2 | – | 142.5 | 159.9 | – |
| N#Cc1c[nH]cc1-c1cccc2c1OC(F)(F)O2 [Fludioxonil] | – | 146.3 | – | – | – |
| CC(=O)c1ccc(O)cc1Br [1-(2-Bromo-4-hydroxyphenyl)ethanone] | – | 130.1 | – | – | – |
| CN(C)CCCN1c2ccccc2CCc2ccc(Cl)cc21 [Clomipramine hydrochloride] | 174.5 | – | 174.5 | – | – |
| Nc1ccccc1S(=O)(=O)c1ccccc1 [2-(Phenylsulfonyl)aniline] | – | 151.8 | – | – | – |
| CCCN[C@H]1CCc2nc(N)sc2C1 [Pramipexole dihydrochloride monohydrate] | 152.6 | – | 152.8 | – | – |

| SMILES | collision cross section in nitrogen [1] [Å²] | collision cross section in nitrogen [2] [Å²] | collision cross section in nitrogen [3] [Å²] | collision cross section in nitrogen [5] [Å²] | further results |
| --- | --- | --- | --- | --- | --- |
| Nc1ccc(Cl)c([N+](=O)[O-])c1 [4-Chloro-3-nitroaniline] | – | 126.1 | – | – | – |
| Cc1cc(C2(c3cc(C)c(O)cc3C)OS(=O)(=O)c3ccccc32)c(C)cc1O [p-Xylenol blue] | 194.5 | 198 | 194.4 | 200.6 | – |
| CCC(=O)Oc1ccc(/C(CC)=C(\CC)c2ccc(OC(=O)CC)cc2)cc1 [Diethylstilbestrol dipropionate] | – | – | – | 193.9 | – |
| COc1cc(OC)nc(NC(=O)NS(=O)(=O)c2ncccc2OCC(F)(F)F)n1 [Trifloxysulfuron-sodium] | 192 | 190.2 | – | 194.5 | – |
| Cc1ccccc1NC(=N)NC(=N)N [1-(o-Tolyl)biguanide] | 144.7 | – | 144.7 | 148.5 | – |
| N[C@@H](Cc1cc(I)c(Oc2ccc(O)c(I)c2)c(I)c1)C(=O)O [3,5,3′-Triiodo-L-thyronine monosodium salt] | 204.8 | 198.1 | – | – | – |
| COC(=O)c1c(C(F)F)nc(C(F)(F)F)c(C2=NCCS2)c1CC(C)C [Thiazopyr] | 182.1 | 182.6 | 183.2 | 192.1 | – |
| OC(Cc1ccccc1Cl)(Cn1nc[nH]c1=S)C1(Cl)CC1 (centres undefined) [Prothioconazole] | – | 171 | – | 174.4 | – |
| CN(C)C(=O)C1(N2CCCCC2)CCN(CC[C@@]2(c3ccc(Cl)c(Cl)c3)CN(C(=O)c3ccccc3)CCO2)CC1 | 245.5 | – | 244.9 | 241.3 | – |
| CC(C)COC(=O)COc1ccc(Cl)cc1Cl [2,4-D-isobutyl] | – | – | – | 172.2 | – |
| CC[C@]12CCCN3CCc4c(n(c5ccccc45)[C@@](O)(C(=O)OC)C1)[C@@H]32 [Vincamine] | 183.2 | – | 182.5 | – | – |
| OCC(CO)n1cnc(-c2ccc(F)cc2)c1-c1ccnc(Oc2ccccc2)n1 | 197.1 | – | 197.6 | 191 | – |
| C[C@H]1C[C@H]2[C@@H]3CCC4=CC(=O)C=C[C@]4(C)[C@@]3(F)[C@@H](O)C[C@]2(C)[C@@]1(O)C(=O)CO [Betamethasone] | 177.2 | – | – | 215.2 | – |
| Cc1ccc(N(C)C)cc1 [N,N,4-Trimethylaniline] | – | – | – | 128.2 | – |
| c1coc(-c2nc3ccccc3[nH]2)c1 [Fuberidazole] | 136.8 | 138 | 136.1 | – | – |
| CCCCc1ccc(O)cc1 [4-Butylphenol] | – | 140.6 | – | – | – |
| Cc1nn(-c2cc(NS(C)(=O)=O)c(Cl)cc2Cl)c(=O)n1C(F)F [Sulfentrazone] | 178.2 | 182.4 | – | 184 | – |
| O=c1[nH]sc2ccccc12 [1,2-Benzisothiazolin-3-one] | – | 127.2 | – | – | – |
| Oc1ccc(Cl)c(O)c1 [4-Chlororesorcinol] | – | 122.5 | – | – | – |

| SMILES | collision cross section in nitrogen [1] [Å²] | collision cross section in nitrogen [2] [Å²] | collision cross section in nitrogen [3] [Å²] | collision cross section in nitrogen [5] [Å²] | further results |
| --- | --- | --- | --- | --- | --- |
| N#Cc1ccc(CC(=NNC(=O)Nc2ccc(OC(F)(F)F)cc2)c2cccc(C(F)(F)F)c2)cc1 [Metaflumizone] | 212.4 | – | – | 220.1 | – |
| OCc1cccnc1 [Nicotinyl alcohol] | 119.8 | – | 119.2 | – | – |
| CC(C)NCC(O)COc1ccc(CC(N)=O)cc1 (centres undefined) [Atenolol] | 157.8 | – | 157.9 | 164.2 | – |
| CC1CCc2nccnc21 (centres undefined) [6,7-Dihydro-5-methyl-5H-cyclopentapyrazine] | – | – | 127.6 | – | – |
| c1ccc2c(c1)[nH]c1ccccc12 [Carbazole] | – | 132.9 | – | – | collision cross section in nitrogen [4]: 130.2 Å² |
| COc1ccc(OC)c(C(O)CNC(=O)CN)c1 (centres undefined) [Midodrine hydrochloride] | – | 159.5 | – | 164.3 | – |
| CN(C)c1nc(=O)n(C2CCCCC2)c(=O)n1C [Hexazinone] | 162.8 | – | 163 | 176.3 | – |
| CC(Cc1ccc(O)c(O)c1)C(C)Cc1ccc(O)c(O)c1 (centres undefined) [Nordihydroguaiaretic acid] | – | 167.5 | – | – | – |
| O=C(O)c1ccccc1C(=O)Nc1cccc2ccccc12 [Naptalam] | – | 168.6 | – | 170.9 | – |
| COc1cccc2c1C(=O)c1c(O)c3c(c(O)c1C2=O)C[C@@](O)(C(=O)CO)C[C@@H]3O[C@H]1C[C@H](N)[C@H](O)[C@H](C)O1 [Doxorubicin hydrochloride] | 230 | 223.1 | 230.5 | 232.8 | – |
| CC(C)(C)c1n[nH]c(=S)n(N)c1=O | – | 142.1 | – | – | – |
| Oc1ccc(C2(c3ccc(O)cc3)c3ccccc3-c3ccccc32)cc1 [4,4'-(9H-Fluorene-9,9-diyl)diphenol] | – | 194.8 | – | – | – |
| Cc1cc(SC2=C(O)C[C@@](CCc3ccc(N)cc3)(C(C)C)OC2=O)c(C(C)(C)C)cc1CO [CI-1029] | – | 214.2 | – | 210.5 | – |
| COP(=S)(OC)Oc1ccc(S(=O)(=O)N(C)C)cc1 [Famphur] | – | – | 174 | 173.8 | – |
| Cc1ncc(CO)c(CO)c1O [Pyridoxine hydrochloride] | – | 133.3 | 133.7 | 144 | – |
| CC(=O)O[C@H](CC(=O)[O-])C[N+](C)(C)C [Acetyl-L-carnitine hydrochloride] | 143.9 | – | – | – | – |
| CC1(C)C(C(=O)OC(C#N)c2cccc(Oc3ccccc3)c2)C1(C)C (centres undefined) [Fenpropathrin] | – | – | – | 186 | – |
| COS(=O)(=O)c1ccccc1 [Methyl benzenesulphonate] | – | 135 | – | – | – |
| CCNC(=O)C1CC(C)CCC1C(C)C (centres undefined) [N-Ethyl-2-(isopropyl)-5-methylcyclohexanecarboxamide] | 152.7 | 155.6 | 153.5 | 171.3 | – |
